This is an account of results in PubChem BioAssay (NCI).

Some test systems named below: U251 CNS; NCI-H226 lung; HCT-15 colon; MDA-MB-435; MALME-3M melanoma; SF-295 CNS; PC-3 prostate; NCI-H460 lung; NCI-H522 lung; BT-549 breast.
What all share (assay): DTP human tumour cell line panel, 48 h

SMILES strings stand for the structures.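 Results reflect a 48-hour exposure of cells in 96-well plates to compound at five concentrations. At the GI50, growth is halved. TGI is the concentration that stops growth completely.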

What is called GI50 is the concentration that inhibits growth by half. In general, TGI refers to the concentration at which net growth stops. Read a high TGI as lower sensitivity of the cells.

On to `CNC12C3C4C1C1C2C3C41C(=O)N[C@H](C(=O)N(C)[C@H](C[C@@H](OC(C)=O)c1nc(C(=O)N[C@@H](Cc2ccccc2)C[C@H](C)C(=O)OC)cs1)C(C)C)C1CC1` (stereo partly drawn), for which the GI50 in the assay on U251 CNS is 0.587 µM; in the assay on NCI-H226 lung it was 1.73 µM; in the assay with HCT-15 colon, 0.831 µM; in the assay on MDA-MB-435, 0.0467 µM; with MALME-3M melanoma, 0.504 µM; with SF-295 CNS, 0.343 µM. Besides, the GI50 in the assay on PC-3 prostate is 0.391 µM; with NCI-H460 lung it was 0.517 µM; in the assay on NCI-H522 lung, 0.041 µM; in the assay on BT-549 breast it was 0.123 µM. Besides, the TGI with U251 CNS was over 15 µM; with NCI-H226 lung, over 14 µM; with HCT-15 colon, over 15 µM; in the assay with MDA-MB-435, 0.32 µM; with MALME-3M melanoma, over 15 µM; with SF-295 CNS, 1.31 µM. Also, the TGI with PC-3 prostate was over 15 µM; with NCI-H460 lung, over 15 µM; in the assay on NCI-H522 lung, 0.524 µM; in the assay on BT-549 breast, 0.745 µM.

As for `CCOC(=O)Nc1ccc(C(=O)/C=C/c2ccccc2)cc1`, the GI50 with U251 CNS was 12.6 µM; in the assay with NCI-H226 lung, 19.8 µM; in the assay on HCT-15 colon, 27.2 µM; with MDA-MB-435, 5.13 µM; in the assay on MALME-3M melanoma it was 77.4 µM; in the assay with SF-295 CNS, 41.7 µM. Also, the GI50 is 30.9 µM in the assay with PC-3 prostate, 28.9 µM in the assay on NCI-H460 lung, 20.9 µM with NCI-H522 lung and 26.5 µM in the assay with BT-549 breast. Also, the TGI is 30.4 µM with U251 CNS; 68.6 µM in the assay with NCI-H226 lung; over 100 µM with HCT-15 colon; over 100 µM with MDA-MB-435; over 100 µM in the assay with MALME-3M melanoma; over 100 µM with SF-295 CNS. Moreover, the TGI in the assay on PC-3 prostate is over 100 µM; in the assay on NCI-H460 lung, over 100 µM; in the assay with NCI-H522 lung, 79.8 µM; with BT-549 breast it was 67.8 µM.

In the case of `CNC(=O)/C(=C/c1ccc(OC)cc1)c1cc(OC)c(OC)c(OC)c1`, the TGI in the assay on U251 CNS is 23.1 µM; in the assay with NCI-H226 lung, over 53.7 µM; with HCT-15 colon it was over 100 µM; with MDA-MB-435 it was 2.42 µM; in the assay on MALME-3M melanoma, over 54.5 µM; with SF-295 CNS, 3.02 µM. Also, the TGI is over 100 µM in the assay on PC-3 prostate, 47.5 µM with NCI-H460 lung, 4.39 µM with NCI-H522 lung and over 100 µM in the assay on BT-549 breast.

Regarding `C[n+]1cc2cc3c(cc2c2ccccc21)OCO3`, the GI50 was 1.33 µM in the assay with U251 CNS; 2.4 µM in the assay with NCI-H226 lung; 70.2 µM in the assay on HCT-15 colon; 5.32 µM with MDA-MB-435; 1.86 µM in the assay with MALME-3M melanoma; 3.17 µM in the assay with SF-295 CNS. The GI50 in the assay on PC-3 prostate was 3.12 µM; in the assay on NCI-H460 lung, 2.98 µM; with NCI-H522 lung, 2.17 µM; in the assay on BT-549 breast, 2.95 µM. Moreover, the TGI is 11.3 µM in the assay with U251 CNS; 32.2 µM in the assay on NCI-H226 lung; over 100 µM in the assay on HCT-15 colon; 21 µM in the assay with MDA-MB-435; 5.16 µM with MALME-3M melanoma; 30.3 µM in the assay with SF-295 CNS. Besides, the TGI in the assay on PC-3 prostate was found to be 26.4 µM; in the assay on NCI-H460 lung, 14.5 µM; in the assay with NCI-H522 lung, 6.23 µM; in the assay with BT-549 breast it was 16.3 µM.

Regarding `O=C1c2ccccc2C(=O)c2sc(Nc3ccc(Cl)cc3)nc21`, the TGI in the assay with U251 CNS was found to be 3.55 µM; in the assay on NCI-H226 lung it was 15.3 µM; in the assay on HCT-15 colon, 3.8 µM; in the assay on MDA-MB-435, 2.69 µM; in the assay with MALME-3M melanoma, 3.25 µM; in the assay with SF-295 CNS, 15.8 µM. In addition, the TGI in the assay with PC-3 prostate is 10.5 µM; in the assay with NCI-H460 lung it was 11.7 µM; in the assay on NCI-H522 lung it was 3.28 µM; in the assay on BT-549 breast, 11.7 µM. Also, the GI50 in the assay on MDA-MB-435 is 1.29 µM; in the assay with PC-3 prostate, 2.49 µM; with BT-549 breast, 2.87 µM.

On to `C/C(=C1/N=C(c2ccccc2)OC1=O)c1ccccc1`, for which the TGI in the assay on U251 CNS, with NCI-H226 lung, in the assay with HCT-15 colon, in the assay with MDA-MB-435, in the assay on MALME-3M melanoma and in the assay with SF-295 CNS was over 100 µM in each case. Moreover, the TGI in the assay on PC-3 prostate, with NCI-H460 lung, with NCI-H522 lung and in the assay on BT-549 breast was over 100 µM each time.

Take `COc1ccc2c(c1)C(=O)c1c-2n(CCCN=[N+]=[N-])c(=O)c2cc(N)ccc12`: the GI50 in the assay with U251 CNS, with NCI-H226 lung, in the assay with HCT-15 colon, with MDA-MB-435, in the assay with MALME-3M melanoma and with SF-295 CNS was over 100 µM throughout. In addition, the GI50 with PC-3 prostate, in the assay with NCI-H460 lung, in the assay on NCI-H522 lung and in the assay on BT-549 breast was over 100 µM each time. Moreover, the TGI in the assay on U251 CNS, in the assay with NCI-H226 lung, in the assay on HCT-15 colon, in the assay on MDA-MB-435, in the assay on MALME-3M melanoma and with SF-295 CNS was over 100 µM each time. Moreover, the concentration for total growth inhibition (TGI) with PC-3 prostate, with NCI-H460 lung, with NCI-H522 lung and in the assay with BT-549 breast was over 100 µM in each case.

With `CC(=O)OC1CC2(O)C(CCC3(C)C(c4ccc(=O)oc4)CCC32O)C2(C)CCC(OC3OC(CO)C(O)C(O)C3O)C=C12` (stereo not drawn), the GI50 in the assay with U251 CNS is 0.0348 µM; in the assay on NCI-H226 lung, 0.051 µM; with HCT-15 colon, 0.0343 µM; in the assay on MDA-MB-435 it was 0.0342 µM; in the assay on MALME-3M melanoma it was 0.0245 µM; in the assay with SF-295 CNS, 0.0302 µM. Moreover, the concentration for 50% growth inhibition (GI50) was 0.0248 µM in the assay with PC-3 prostate, under 0.01 µM in the assay with NCI-H460 lung, under 0.01 µM in the assay on NCI-H522 lung and 0.0101 µM in the assay with BT-549 breast. In addition, the concentration for total growth inhibition (TGI) came to 0.136 µM with U251 CNS; 0.176 µM with NCI-H226 lung; 0.134 µM with HCT-15 colon; 0.139 µM in the assay with MDA-MB-435; 0.0593 µM in the assay with MALME-3M melanoma; 0.168 µM with SF-295 CNS. Also, the TGI in the assay with PC-3 prostate is 0.125 µM; with NCI-H460 lung, 0.0282 µM; with NCI-H522 lung it was 0.148 µM; in the assay on BT-549 breast, 0.0661 µM.
